#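 Grown in 96-well plates, cells were treated for 48 hours with each compound at five concentrations. Insufficient inhibition: endpoint recorded as highest concentration tested. TGI: total growth inhibition.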
# Legend:
# Test in all cases: DTP human tumour cell line panel, 48 h
# SK-MEL-28 melanoma = test system: SK-MEL-28 melanoma
# NCI-H23 lung = test system: NCI-H23 lung
# NCI-H460 lung = test system: NCI-H460 lung
# IGROV1 ovarian = test system: IGROV1 ovarian
# SK-MEL-2 melanoma = test system: SK-MEL-2 melanoma
# CCRF-CEM leukemia = test system: CCRF-CEM leukemia
# OVCAR-3 ovarian = test system: OVCAR-3 ovarian
# SNB-19 CNS = test system: SNB-19 CNS
# M14 melanoma = test system: M14 melanoma
# SK-OV-3 ovarian = test system: SK-OV-3 ovarian
# TK-10 renal = test system: TK-10 renal
# SF-295 CNS = test system: SF-295 CNS
# HOP-62 NSCLC = test system: HOP-62 NSCLC
# ACHN renal = test system: ACHN renal
# K-562 leukemia = test system: K-562 leukemia
# RPMI-8226 leukemia = test system: RPMI-8226 leukemia
# SF-268 CNS = test system: SF-268 CNS
# SNB-75 CNS = test system: SNB-75 CNS
# NCI-H226 lung = test system: NCI-H226 lung
# MDA-MB-435 = test system: MDA-MB-435
# RXF 393 renal = test system: RXF 393 renal
# MDA-N = test system: MDA-N
# UO-31 renal = test system: UO-31 renal
# COLO 205 colon = test system: COLO 205 colon
# A549 NSCLC = test system: A549 NSCLC
# HCC-2998 colon = test system: HCC-2998 colon
# MALME-3M melanoma = test system: MALME-3M melanoma
# OVCAR-8 ovarian = test system: OVCAR-8 ovarian
# SF-539 CNS = test system: SF-539 CNS
# U251 CNS = test system: U251 CNS
# MCF7 breast = test system: MCF7 breast
# 786-0 renal = test system: 786-0 renal
# SN12C renal = test system: SN12C renal
# UACC-257 melanoma = test system: UACC-257 melanoma
# T-47D breast = test system: T-47D breast
# HT29 colon = test system: HT29 colon
# CAKI-1 renal = test system: CAKI-1 renal
# SR leukemia = test system: SR leukemia
# LOX IMVI melanoma = test system: LOX IMVI melanoma
# NCI/ADR-RES ovarian = test system: NCI/ADR-RES ovarian
# HCT-116 colon = test system: HCT-116 colon
# OVCAR-4 ovarian = test system: OVCAR-4 ovarian
# PC-3 prostate = test system: PC-3 prostate
# BT-549 breast = test system: BT-549 breast
# SW-620 colon = test system: SW-620 colon
# HOP-92 NSCLC = test system: HOP-92 NSCLC
# OVCAR-5 ovarian = test system: OVCAR-5 ovarian
# DU-145 prostate = test system: DU-145 prostate
# KM12 colon = test system: KM12 colon
# UACC-62 melanoma = test system: UACC-62 melanoma
# HS 578T breast = test system: HS 578T breast
# EKVX NSCLC = test system: EKVX NSCLC
# SK-MEL-5 melanoma = test system: SK-MEL-5 melanoma
# HCT-15 colon = test system: HCT-15 colon
# NCI-H522 lung = test system: NCI-H522 lung
# A498 renal = test system: A498 renal
# MDA-MB-231 breast = test system: MDA-MB-231 breast
# MOLT-4 leukemia = test system: MOLT-4 leukemia
compound,measurement,setting,value
Cc1cc2nc(C#N)c(N3CCN(c4ccc([N+](=O)[O-])cc4)CC3)nc2cc1C,TGI,SK-MEL-28 melanoma,> 100 µM
same,TGI,NCI-H23 lung,> 100 µM
same,TGI,NCI-H460 lung,> 100 µM
same,TGI,IGROV1 ovarian,> 100 µM
same,TGI,SK-MEL-2 melanoma,> 100 µM
same,TGI,CCRF-CEM leukemia,> 100 µM
same,TGI,OVCAR-3 ovarian,> 100 µM
same,TGI,SNB-19 CNS,> 100 µM
same,TGI,M14 melanoma,> 100 µM
same,TGI,SK-OV-3 ovarian,> 100 µM
same,TGI,TK-10 renal,> 100 µM
same,TGI,SF-295 CNS,> 100 µM
same,TGI,HOP-62 NSCLC,> 100 µM
same,TGI,ACHN renal,> 100 µM
same,TGI,K-562 leukemia,> 100 µM
same,TGI,RPMI-8226 leukemia,> 100 µM
same,TGI,SF-268 CNS,> 100 µM
same,TGI,SNB-75 CNS,> 100 µM
same,TGI,NCI-H226 lung,> 100 µM
same,TGI,MDA-MB-435,> 100 µM
same,TGI,RXF 393 renal,> 100 µM
same,TGI,MDA-N,> 100 µM
same,TGI,UO-31 renal,> 100 µM
same,TGI,COLO 205 colon,> 100 µM
same,TGI,A549 NSCLC,> 100 µM
same,TGI,HCC-2998 colon,> 100 µM
same,TGI,MALME-3M melanoma,> 100 µM
same,TGI,OVCAR-8 ovarian,> 100 µM
same,TGI,SF-539 CNS,81.2 µM
same,TGI,U251 CNS,> 100 µM
same,TGI,MCF7 breast,> 100 µM
same,TGI,786-0 renal,> 92.9 µM
same,TGI,SN12C renal,> 100 µM
same,TGI,UACC-257 melanoma,> 100 µM
same,TGI,T-47D breast,> 100 µM
same,TGI,HT29 colon,> 100 µM
same,TGI,CAKI-1 renal,> 100 µM
same,TGI,SR leukemia,> 100 µM
same,TGI,LOX IMVI melanoma,> 100 µM
same,TGI,NCI/ADR-RES ovarian,> 100 µM
same,TGI,HCT-116 colon,> 100 µM
same,TGI,OVCAR-4 ovarian,> 100 µM
same,TGI,PC-3 prostate,> 100 µM
same,TGI,BT-549 breast,> 100 µM
same,TGI,SW-620 colon,> 100 µM
same,TGI,HOP-92 NSCLC,> 100 µM
same,TGI,OVCAR-5 ovarian,> 100 µM
same,TGI,DU-145 prostate,> 100 µM
same,TGI,KM12 colon,> 100 µM
same,TGI,UACC-62 melanoma,> 100 µM
same,TGI,HS 578T breast,95.5 µM
same,TGI,EKVX NSCLC,> 100 µM
same,TGI,SK-MEL-5 melanoma,> 100 µM
same,TGI,HCT-15 colon,> 100 µM
same,TGI,NCI-H522 lung,> 100 µM
same,TGI,A498 renal,> 100 µM
same,TGI,MDA-MB-231 breast,> 100 µM
O=C1C(c2c(O)[nH]c3ccc([N+](=O)[O-])cc23)=Nc2ccccc21,TGI,SK-MEL-28 melanoma,> 100 µM
same,TGI,NCI-H23 lung,> 100 µM
same,TGI,NCI-H460 lung,> 100 µM
same,TGI,IGROV1 ovarian,> 100 µM
same,TGI,SK-MEL-2 melanoma,> 100 µM
same,TGI,CCRF-CEM leukemia,> 100 µM
same,TGI,OVCAR-3 ovarian,> 100 µM
same,TGI,SNB-19 CNS,> 100 µM
same,TGI,M14 melanoma,> 100 µM
same,TGI,SK-OV-3 ovarian,> 100 µM
same,TGI,TK-10 renal,70.9 µM
same,TGI,SF-295 CNS,> 100 µM
same,TGI,HOP-62 NSCLC,> 100 µM
same,TGI,ACHN renal,> 100 µM
same,TGI,K-562 leukemia,> 100 µM
same,TGI,RPMI-8226 leukemia,> 100 µM
same,TGI,SF-268 CNS,> 100 µM
same,TGI,SNB-75 CNS,34.2 µM
same,TGI,NCI-H226 lung,> 100 µM
same,TGI,MOLT-4 leukemia,> 100 µM
same,TGI,MDA-MB-435,> 100 µM
same,TGI,RXF 393 renal,42.2 µM
same,TGI,MDA-N,> 100 µM
same,TGI,UO-31 renal,> 100 µM
same,TGI,COLO 205 colon,> 100 µM
same,TGI,A549 NSCLC,> 100 µM
same,TGI,HCC-2998 colon,> 100 µM
same,TGI,MALME-3M melanoma,> 100 µM
same,TGI,OVCAR-8 ovarian,> 100 µM
same,TGI,U251 CNS,49.8 µM
same,TGI,MCF7 breast,> 100 µM
same,TGI,786-0 renal,> 100 µM
same,TGI,SN12C renal,> 100 µM
same,TGI,UACC-257 melanoma,> 100 µM
same,TGI,T-47D breast,> 100 µM
same,TGI,HT29 colon,> 100 µM
same,TGI,CAKI-1 renal,> 100 µM
same,TGI,SR leukemia,> 100 µM
same,TGI,LOX IMVI melanoma,> 100 µM
same,TGI,NCI/ADR-RES ovarian,> 100 µM
same,TGI,HCT-116 colon,> 100 µM
same,TGI,OVCAR-4 ovarian,> 100 µM
same,TGI,PC-3 prostate,> 100 µM
same,TGI,BT-549 breast,> 100 µM
same,TGI,SW-620 colon,> 100 µM
same,TGI,HOP-92 NSCLC,> 100 µM
same,TGI,OVCAR-5 ovarian,> 100 µM
same,TGI,DU-145 prostate,> 100 µM
same,TGI,KM12 colon,> 100 µM
same,TGI,UACC-62 melanoma,> 100 µM
same,TGI,HS 578T breast,> 100 µM
same,TGI,EKVX NSCLC,> 100 µM
same,TGI,SK-MEL-5 melanoma,> 100 µM
same,TGI,HCT-15 colon,> 100 µM
same,TGI,NCI-H522 lung,> 100 µM
same,TGI,A498 renal,> 100 µM
same,TGI,MDA-MB-231 breast,91.2 µM
